From patent US20250230193A1, “CYCLIC COMPOUND HAVING SELECTIVE KRAS INHIBITORY EFFECT ON HRAS AND NRAS” (CHUGAI SEIYAKU KABUSHIKI KAISHA, priority 2022, published 2025)
*1 amine or outer side, *2 acyl side, *3 side chain or, on linkers, in order; H or OH if unused. Where a SMILES comes first, the peptide text is derived from it. Bridges are numbered along the chain shown (N, C = ends). [ ]: non-standard residue; d: D form. The star is where a group is joined. hPhe(3,5-F2-4-CF3) = N[C@@H](CCc1cc(F)c(C(F)(F)F)c(F)c1)C(=O)O; hPhe(3-Cl-4-CF3) = N[C@@H](CCc1ccc(C(F)(F)F)c(Cl)c1)C(=O)O; NPrPhe(4-CF3) = CCCN[C@@H](Cc1ccc(C(F)(F)F)cc1)C(=O)O; X20 = CCCN([C@@H](CC1CCC(F)(F)CC1)C(=O)[*:2])[*:1]; NMeGly(cPent) = CN[C@H](C(=O)O)C1CCCC1; NMeD = CN[C@@H](CC(=O)O)C(=O)O; NMeL = CN[C@@H](CC(C)C)C(=O)O; αMeS = C[C@](N)(CO)C(=O)O; Morpholide = C1CN(*)CCO1; NMeA = CN[C@@H](C)C(=O)O; Ac5c = NC1(C(=O)O)CCCC1; Aze = O=C(O)[C@@H]1CCN1; Sar = CNCC(=O)O; Allyl = C=CC*

Assays:
[1] = target: GDP-bound HRAS wild-type protein (Homo sapiens, UniProt P01112); experiment: Binding to HRAS by surface plasmon resonance (SPR), Single Cycle Kinetics
[2] = target: GDP-bound NRAS wild-type protein (Homo sapiens, UniProt P01111); experiment: Binding to NRAS by surface plasmon resonance (SPR), Single Cycle Kinetics
[3] = SPR, GDP-bound HRAS wild-type vs GDP-bound KRAS wild-type
[4] = SPR, GDP-bound NRAS wild-type vs GDP-bound KRAS wild-type
[5] = KD ratio, GDP-bound HRAS wild-type vs GDP-bound KRAS wild-type, SPR
[6] = KD ratio, GDP-bound NRAS wild-type vs GDP-bound KRAS wild-type, SPR

GDP-bound HRAS wild-type protein, sequence (P01112 whole entry): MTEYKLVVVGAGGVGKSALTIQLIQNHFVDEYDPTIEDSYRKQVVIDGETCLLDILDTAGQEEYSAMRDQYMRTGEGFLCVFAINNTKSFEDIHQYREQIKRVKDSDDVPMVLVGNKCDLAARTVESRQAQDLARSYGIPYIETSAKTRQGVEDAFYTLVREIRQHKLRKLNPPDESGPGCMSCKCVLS
GDP-bound NRAS wild-type protein, sequence (P01111 whole entry): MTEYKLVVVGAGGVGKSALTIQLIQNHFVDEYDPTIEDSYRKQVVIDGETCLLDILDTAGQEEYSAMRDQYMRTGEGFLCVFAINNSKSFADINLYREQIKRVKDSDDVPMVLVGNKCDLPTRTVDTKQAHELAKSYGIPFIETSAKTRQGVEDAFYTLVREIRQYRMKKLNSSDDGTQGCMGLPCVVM

C=CCOC[C@]1(C)NC(=O)[C@@H]2CCCN2C(=O)[C@H](CCc2cc(F)c(C(F)(F)F)c(F)c2)NC(=O)CN(C)C(=O)[C@H](Cc2ccc(C(F)(F)F)cc2)N(CCC)C(=O)CN(C)C(=O)CN(C)C(=O)[C@H]([C@@H](C)CC)NC(=O)[C@H](CC(C)C)N(C)C(=O)C[C@@H](C(=O)N(C)C)N(C)C(=O)[C@H](C2CCCC2)N(C)C1=O [PP0742] ([NMeL]I[Sar][Sar][NPrPhe(4-CF3)][Sar][hPhe(3,5-F2-4-CF3)]P[αMeS](Allyl)[NMeGly(cPent)][NMeD]-NMe2; lactam N-11)
HRAS/KRAS (ratio of KD value with respect to GDP-bound HRAS wild-type protein to KD value with respect to KRAS) ([1]; SPR): B (a compound having 3 or more and less than 10 is denoted as B) | NRAS/KRAS (ratio of KD value with respect to GDP-bound NRAS wild-type protein to KD value with respect to KRAS) ([2]; SPR): B (a compound having 3 or more and less than 10 is denoted as B)

C#CC[C@H]1C(=O)N[C@@H]([C@@H](C)CC)C(=O)N(C)CC(=O)N(C)[C@H]2CCCCCN(C2=O)[C@@H](Cc2ccc(C(F)(F)F)cc2)C(=O)N(C)CC(=O)N[C@@H](CCc2cc(F)c(C(F)(F)F)c(F)c2)C(=O)N2C[C@H](OCC)C[C@H]2C(=O)NC2(CCC2)C(=O)N(C)[C@@H](C2CCCC2)C(=O)N(C)[C@H](C(=O)N2CCOCC2)CC(=O)N1C [PP0681]
HRAS/KRAS (ratio of KD value with respect to GDP-bound HRAS wild-type protein to KD value with respect to KRAS) ([1]; SPR): B (a compound having 3 or more and less than 10 is denoted as B) | NRAS/KRAS (ratio of KD value with respect to GDP-bound NRAS wild-type protein to KD value with respect to KRAS) ([2]; SPR): B (a compound having 3 or more and less than 10 is denoted as B)

CCO[C@@H]1C[C@H]2C(=O)NC3(CC(C)(C)C3)C(=O)N(C)[C@@H](C(CC)CC)C(=O)N(C)[C@H](C(=O)N(C)C)CC(=O)N(C)[C@@H](CC3CCC3)C(=O)N[C@@H]([C@@H](C)CC)C(=O)N(C)CC(=O)N(C)[C@H]3C/C=C\CCN(C3=O)[C@@H](Cc3ccc(C(F)(F)F)cc3)C(=O)N(C)CC(=O)N[C@@H](CCc3ccc(C(F)(F)F)c(Cl)c3)C(=O)N2C1 [PP2138]
HRAS/KRAS (ratio of KD value with respect to HRAS to KD value with respect to KRAS) [1, 3]: A (a compound having 10 or more and less than 20 is denoted as A) | NRAS/KRAS (ratio of KD value with respect to NRAS to KD value with respect to KRAS) [2, 4]: A (a compound having 10 or more and less than 20 is denoted as A)

CCCN(C)C(=O)[C@@H]1CC(=O)N(C)[C@@H](CC(F)F)C(=O)N[C@@H]([C@@H](C)CC)C(=O)N(C)CC(=O)N(C)[C@H]2C/C=C\CCN(C2=O)[C@@H](Cc2ccc(C(F)(F)F)cc2)C(=O)N(C)CC(=O)N[C@@H](CCc2cc(F)c(C(F)(F)F)c(F)c2)C(=O)N2C[C@@H](C)C[C@H]2C(=O)NC2(CCC2)C(=O)N(C)[C@@H](C2CCCC2)C(=O)N1C [PP2000]
HRAS/KRAS (ratio of KD value for HRAS to KD value for KRAS) [1, 5]: B (a compound having 3 or more and less than 10 is denoted as B) | NRAS/KRAS (ratio of KD value for NRAS to KD value for KRAS) [2, 6]: A (a compound having 10 or more and less than 20 is denoted as A)

CCO[C@@H]1C[C@H]2C(=O)NC3(CCC3)C(=O)N(C)[C@@H](C3CCCC3)C(=O)N(CC)[C@H](C(=O)N3CCOCC3)CC(=O)N(C)[C@@H](CC)C(=O)N[C@@H]([C@@H](C)CC)C(=O)N(C)CC(=O)N(C)[C@H]3C/C=C\CCN(C3=O)[C@@H](Cc3ccc(C(F)(F)F)cc3)C(=O)N(C)CC(=O)N[C@@H](CCc3cc(F)c(C(F)(F)F)c(F)c3)C(=O)N2C1 [PP0979]
HRAS/KRAS (ratio of KD value with respect to HRAS to KD value with respect to KRAS) [1, 5]: A (a compound having 10 or more and less than 20 is denoted as A) | NRAS/KRAS (ratio of KD value with respect to NRAS to KD value with respect to KRAS) [2, 6]: AA (a compound having 20 or more is denoted as AA)

CCO[C@@H]1C[C@H]2C(=O)NC3(CCC3)C(=O)N(C)[C@@H](C3CCCC3)C(=O)N(C)[C@H](C(=O)N(C)CC)CC(=O)N(C)[C@@H](CC(C)C)C(=O)N[C@@H]([C@@H](C)CC)C(=O)N(C)CC(=O)N(C)[C@H]3C/C=C\CCN(C3=O)[C@@H](Cc3ccc(C(F)(F)F)cc3)C(=O)N(C)CC(=O)N[C@@H](CCc3ccc(Cl)c(Cl)c3)C(=O)N2C1 [PP2845]
HRAS/KRAS (ratio of KD value with respect to GDP-bound HRAS wild-type protein to KD value with respect to KRAS) ([1]; class symbols): A (a compound having 10 or more and less than 20 is denoted as A) | NRAS/KRAS (ratio of KD value with respect to GDP-bound NRAS wild-type protein to KD value with respect to KRAS) ([2]; class symbols): AA (a compound having 20 or more is denoted as AA)

CCCN(C)C(=O)[C@@H]1CC(=O)N(C)[C@@H](C2CCC2)C(=O)N[C@@H]([C@@H](C)CC)C(=O)N(C)CC(=O)N(C)[C@H]2C/C=C\CCN(C2=O)[C@@H](Cc2ccc(C(F)(F)F)cc2)C(=O)N(C)CC(=O)N[C@@H](CCc2cc(F)c(C(F)(F)F)c(F)c2)C(=O)N2C[C@@H](C)C[C@H]2C(=O)NC2(CCC2)C(=O)N(C)[C@@H](C2CCCC2)C(=O)N1C [PP2083]
HRAS/KRAS (ratio of KD value with respect to HRAS to KD value with respect to KRAS) [1, 3]: B (a compound having 3 or more and less than 10 is denoted as B) | NRAS/KRAS (ratio of KD value with respect to NRAS to KD value with respect to KRAS) [2, 4]: A (a compound having 10 or more and less than 20 is denoted as A)

CC[C@H](C)[C@@H]1NC(=O)[C@H](CC)N(C)C(=O)C[C@@H](C(=O)N(C)C)N(C)C(=O)[C@H](C2CCCC2)N(C)C(=O)C2(CCC2)NC(=O)[C@@H]2CCN2C(=O)[C@H](CCc2cc(F)c(C(F)(F)F)c(F)c2)NC(=O)CN(C)C(=O)[C@H](Cc2ccc(C(F)(F)F)cc2)N2CC/C=C\C[C@@H](C2=O)N(C)C(=O)CN(C)C1=O [PP1139]
HRAS/KRAS (ratio of KD value with respect to HRAS to KD value with respect to KRAS) [1, 5]: A (a compound having 10 or more and less than 20 is denoted as A) | NRAS/KRAS (ratio of KD value with respect to NRAS to KD value with respect to KRAS) [2, 6]: A (a compound having 10 or more and less than 20 is denoted as A)

CCCN1C(=O)[C@@H]2CCN2C(=O)[C@H](C)N(C)C(=O)[C@H]([C@@H](C)CC)NC(=O)[C@H](CC(C)C)N(C)C(=O)C[C@@H](C(=O)N2CCOCC2)N(C)C(=O)[C@H](C2CCCC2)N(C)C(=O)C2(CCCC2)NC(=O)[C@@H]2CCCN2C(=O)[C@H](CCc2ccc(C(F)(F)F)c(Cl)c2)NC(=O)CN(C)C(=O)[C@@H]1CC1CCC(F)(F)CC1 [PP0527] ([NMeL]I[NMeA][Aze][X20][Sar][hPhe(3-Cl-4-CF3)]P[Ac5c][NMeGly(cPent)][NMeD]-Morpholide; lactam N-11)
HRAS/KRAS (ratio of KD value with respect to GDP-bound HRAS wild-type protein to KD value with respect to KRAS) ([1]; SPR): C (A compound having a KD ratio of 0.1 or more and less than 3 is denoted as C) | NRAS/KRAS (ratio of KD value with respect to GDP-bound NRAS wild-type protein to KD value with respect to KRAS) ([2]; SPR): C (A compound having a KD ratio of 0.1 or more and less than 3 is denoted as C)

C#CCN1CC(=O)N(C)[C@H]2C/C=C\CCN(C2=O)[C@@H](Cc2ccc(C)cc2)C(=O)N(C)CC(=O)N[C@@H](CCc2cc(F)c(C(F)(F)F)c(F)c2)C(=O)N2C[C@H](OCC)C[C@H]2C(=O)NC2(CCC2)C(=O)N(C)[C@@H](C2CCCC2)C(=O)N(C)[C@H](C(=O)N(C)C)CC(=O)N(C)[C@@H](CCC)C(=O)N[C@@H](CC(C)C)C1=O [PP2536]
HRAS/KRAS (ratio of KD value with respect to GDP-bound HRAS wild-type protein to KD value with respect to KRAS) ([1]; class symbols): B (a compound having 3 or more and less than 10 is denoted as B) | NRAS/KRAS (ratio of KD value with respect to GDP-bound NRAS wild-type protein to KD value with respect to KRAS) ([2]; class symbols): A (a compound having 10 or more and less than 20 is denoted as A)

CCC[C@H]1C(=O)N[C@@H]([C@@H](C)CC)C(=O)N(C)CC(=O)N(C)[C@H]2C/C=C\CCN(C2=O)[C@@H](Cc2ccc(C)cc2)C(=O)N(C)CC(=O)N[C@@H](CCc2ccc3c(C)c(C)n(C)c3c2)C(=O)N2C[C@H](OCC)C[C@H]2C(=O)NC2(CC(C)(C)C2)C(=O)N(C)[C@@H](C(CC)CC)C(=O)N(C)[C@H](C(=O)N(C)C)CC(=O)N1C [PP2906]
HRAS/KRAS (ratio of KD value with respect to GDP-bound HRAS wild-type protein to KD value with respect to KRAS) ([1]; class symbols): A (a compound having 10 or more and less than 20 is denoted as A) | NRAS/KRAS (ratio of KD value with respect to GDP-bound NRAS wild-type protein to KD value with respect to KRAS) ([2]; class symbols): A (a compound having 10 or more and less than 20 is denoted as A)
